Measured values: US11986532B2 (Arvinas Operations, Inc., priority 2021, dated 2024)
Where two headings read alike, the source gives them in different places.

Target: T1, BCL6 (Homo sapiens, UniProt P41182)
T1 construct: endogenous in cells; host or cells: T47D breast cancer epithelial cells
Assay: Immunofluorescence protocol for high content imaging of BCL6 (degradation) in T47D cells, 3 days compound treatment
Type: cell-based
Settings: for DC50: read-out: Mean DC50 (nM)* category; for Dmax: read-out: Mean Dmax (%)** category
How it was run: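 Read-out: high-content imaging of anti-BCL6 immunofluorescence (Alexa-488 secondary) with CellMask and Hoechst counterstains, 10×, 4 fields/well. Cells had 3 days of compound exposure at 37° C, 5% CO2, 11-point 3-fold series from a final top of 0.1 or 1 μM.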

[1] = T47D cells, 3 days compound treatment

Structure (SMILES) | DC50 [1] | Dmax [1] | Dmax (T47D) | DC50
CNC(=O)COc1cc2cc(Nc3nc(N4CCC(O[C@H]5CC[C@H](Oc6cccc7c6C(=O)N(C6CCC(=O)NC6=O)C7=O)CC5)CC4)ncc3Cl)ccc2n(C(C)C)c1=O (stereo partly drawn) [Compound 31, 2-[(6-{[5-chloro-2-(4-{[(1r,4r)-4-{[2-(2,6-dioxopiperidin-3-yl)-1,3-dioxo-2,3-dihydro-1H-isoindol-4-yl]oxy}cyclohexyl]oxy}piperidin-1-yl)pyrimidin-4-yl]amino}-2-oxo-1-(propan-2-yl)-1,2-dihydroquinolin-3-yl)oxy]-N-methylacetamide] | < 10 nM | 50 to 70% | – | –
CNC(=O)COc1cc2cc(Nc3nc(N4CCC(O[C@H]5C[C@H](N6CCN(c7ccc8c(c7C)C(=O)N(C7CCC(=O)NC7=O)C8=O)C[C@@H]6C)C5)CC4)ncc3Cl)ccc2n(C(C)C)c1=O (stereo partly drawn) [Compound 194, 2-({6-[(5-chloro-2-{4-[(1r,3r)-3-[(2S)-4-[2-(2,6-dioxopiperidin-3-yl)-4-methyl-1,3-dioxo-2,3-dihydro-1H-isoindol-5-yl]-2-methylpiperazin-1-yl]cyclobutoxy]piperidin-1-yl}pyrimidin-4-yl)amino]-2-oxo-1-(propan-2-yl)-1,2-dihydroquinolin-3-yl}oxy)-N-methylacetamide] | < 10 nM | ≥ 70% | – | –
CNC(=O)COc1cc2cc(Nc3nc(N4CCC(CN5CC(N6CCN(c7ccc8c(c7)CN(C7CCC(=O)NC7=O)C8=O)CC6)C5)CC4)ncc3Cl)ccc2n(C(C)C)c1=O (stereo not drawn) [Compound 242, 2-({6-[(5-chloro-2-{4-[(3-{4-[2-(2,6-dioxopiperidin-3-yl)-1-oxo-2,3-dihydro-1H-isoindol-5-yl]piperazin-1-yl}azetidin-1-yl)methyl]piperidin-1-yl}pyrimidin-4-yl)amino]-2-oxo-1-(propan-2-yl)-1,2-dihydroquinolin-3-yl}oxy)-N-methylacetamide] | – | – | ≥ 70% | < 10 nM
CNC(=O)COc1cc2c(F)c(Nc3cc(N4CCC(CN5CCC6(CN(c7ccc8c(c7)CN(C7CCC(=O)NC7=O)C8=O)C6)C(F)(F)C5)CC4)ncc3Cl)ccc2n(C(C)C)c1=O (stereo not drawn) [Compound 251, 2-{[6-({5-chloro-2-[4-({2-[2-(2,6-dioxopiperidin-3-yl)-1-oxo-2,3-dihydro-1H-isoindol-5-yl]-5,5-difluoro-2,7-diazaspiro[3.5]nonan-7-yl}methyl)piperidin-1-yl]pyridin-4-yl}amino)-5-fluoro-2-oxo-1-(propan-2-yl)-1,2-dihydroquinolin-3-yl]oxy}-N-methylacetamide] | – | – | ≥ 70% | < 10 nM
CNC(=O)COc1cc2cc(Nc3cc(N4CCC(O[C@H]5C[C@H](N6CCC(c7ccc8c(c7F)CN(C7CCC(=O)NC7=O)C8=O)CC6)C5)CC4)ncc3Cl)ccc2n(C(C)C)c1=O (stereo partly drawn) [Compound 258, 2-({6-[(5-chloro-2-{4-[(1r,3r)-3-{4-[2-(2,6-dioxopiperidin-3-yl)-4-fluoro-1-oxo-2,3-dihydro-1H-isoindol-5-yl]piperidin-1-yl}cyclobutoxy]piperidin-1-yl}pyridin-4-yl)amino]-2-oxo-1-(propan-2-yl)-1,2-dihydroquinolin-3-yl}oxy)-N-methylacetamide] | – | – | 50 to 70% | < 10 nM
CNC(=O)COc1cc2cc(Nc3nc(N4CCC(O[C@H]5C[C@H](N6CCC7(CCN(c8ccc9c(c8)CN(C8CCC(=O)NC8=O)C9=O)C7)C6)C5)CC4)ncc3Cl)ccc2n(C(C)C)c1=O (stereo partly drawn) [Compound 346, 2-({6-[(5-chloro-2-{4-[(1r,3r)-3-{7-[2-(2,6-dioxopiperidin-3-yl)-1-oxo-2,3-dihydro-1H-isoindol-5-yl]-2,7-diazaspiro [4.4]nonan-2-yl}cyclobutoxy]piperidin-1-yl}pyrimidin-4-yl)amino]-2-oxo-1-(propan-2-yl)-1,2-dihydroquinolin-3-yl}oxy)-N-methylacetamide] | – | – | ≥ 70% | < 10 nM
CNC(=O)COc1cc2cc(Nc3nc(N4CCC(O[C@H]5C[C@H](N6CCN(c7ccc8c(c7F)CN([C@@H]7CCC(=O)NC7=O)C8=O)CC6)C5)CC4)ncc3Cl)ccc2n(C(C)C)c1=O [Compound 392, 2-({6-[(5-chloro-2-{4-[(1r,3r)-3-(4-{2-[(3R)-2,6-dioxopiperidin-3-yl]-4-fluoro-1-oxo-2,3-dihydro-1H-isoindol-5-yl}piperazin-1-yl)cyclobutoxy]piperidin-1-yl}pyrimidin-4-yl)amino]-2-oxo-1-(propan-2-yl)-1,2-dihydroquinolin-3-yl}oxy)-N-methylacetamide] | – | – | ≥ 70% | < 10 nM
CNC(=O)COc1cc2cc(Nc3cc(N4CCC(CN5CCC6(CN(c7ccc8c(c7)CN(C7CCC(=O)NC7=O)C8=O)C6)C(F)(F)C5)CC4)ncc3Cl)ccc2n(C(C)C)c1=O (stereo not drawn) [Compound 231, 2-{[6-({5-chloro-2-[4-({2-[2-(2,6-dioxopiperidin-3-yl)-1-oxo-2,3-dihydro-1H-isoindol-5-yl]-5,5-difluoro-2,7-diazaspiro[3.5]nonan-7-yl}methyl)piperidin-1-yl]pyridin-4-yl}amino)-2-oxo-1-(propan-2-yl)-1,2-dihydroquinolin-3-yl]oxy}-N-methylacetamide] | – | – | 50 to 70% | < 10 nM

Now from value to compound, other results behind:

DC50 [1] | Dmax [1] | Structure (SMILES) | Dmax (T47D) | DC50
10 to 50 nM | 50 to 70% | CNC(=O)COc1cc2cc(Nc3nc(N4CCN(CC5CCC6(CC5)CN(c5cc(OC)cc7c5C(=O)N(C5CCC(=O)NC5=O)C7=O)C6)CC4)ncc3Cl)ccc2n(C(C)C)c1=O (stereo not drawn) [Compound 10, 2-{[6-({5-chloro-2-[4-({2-[2-(2,6-dioxopiperidin-3-yl)-6-methoxy-1,3-dioxo-2,3-dihydro-1H-isoindol-4-yl]-2-azaspiro[3.5]nonan-7-yl}methyl)piperazin-1-yl]pyrimidin-4-yl}amino)-2-oxo-1-(propan-2-yl)-1,2-dihydroquinolin-3-yl]oxy}-N-methylacetamide] | – | –
< 10 nM | 50 to 70% | CNC(=O)COc1cc2cc(Nc3nc(N4CCN(C(C)(C)C5CCN(c6cc7c(c(OC)c6)C(=O)N(C6CCC(=O)NC6=O)C7)CC5)CC4)ncc3Cl)ccc2n(C(C)C)c1=O (stereo not drawn) [Compound 77, 2-{[6-({5-chloro-2-[4-(2-{1-[2-(2,6-dioxopiperidin-3-yl)-7-methoxy-1-oxo-2,3-dihydro-1H-isoindol-5-yl]piperidin-4-yl}propan-2-yl)piperazin-1-yl]pyrimidin-4-yl}amino)-2-oxo-1-(propan-2-yl)-1,2-dihydroquinolin-3-yl]oxy}-N-methylacetamide] | – | –
< 10 nM | ≥ 70% | CNC(=O)COc1cc2cc(Nc3nc(N4CCC5(CC4)CC(CN4CCN(c6cccc7c6CN(C6CCC(=O)NC6=O)C7=O)CC4)C5)ncc3Cl)ccc2n(C(C)C)c1=O (stereo not drawn) [Compound 14, 2-{[6-({5-chloro-2-[2-({4-[2-(2,6-dioxopiperidin-3-yl)-1-oxo-2,3-dihydro-1H-isoindol-4-yl]piperazin-1-yl}methyl)-7-azaspiro[3.5]nonan-7-yl]pyrimidin-4-yl}amino)-2-oxo-1-(propan-2-yl)-1,2-dihydroquinolin-3-yl]oxy}-N-methylacetamide] | – | –
< 10 nM | 50 to 70% | CNC(=O)COc1cc2cc(Nc3nc(N4CCN(CC5CCN(c6c(F)ccc7c6C(=O)N(C6CCC(=O)NC6=O)C7=O)CC5)CC4)ncc3Cl)ccc2n(C)c1=O (stereo not drawn) [Compound 35, 2-{[6-({5-chloro-2-[4-({1-[2-(2,6-dioxopiperidin-3-yl)-5-fluoro-1,3-dioxo-2,3-dihydro-1H-isoindol-4-yl]piperidin-4-yl}methyl)piperazin-1-yl]pyrimidin-4-yl}amino)-1-methyl-2-oxo-1,2-dihydroquinolin-3-yl]oxy}-N-methylacetamide] | – | –
